System: rabbit aortic rings
Experiment: Assay B: In vitro vascular smooth muscle response for AII, antagonist activity in aortic rings
Type: cell-based
Details: not given
Description: Assay B: In Vitro Vascular Smooth Muscle-Response for AII
The compounds of the invention were tested for antagonist activity in rabbit aortic rings. Male New Zealand white rabbits (2-2.5 kg) were sacrificed using an overdose of pentobarbital and exsanguinated via the carotid arteries. The thoracic aorta was removed, cleaned of adherent fat and connective tissue and then cut into 3-mm ring segments. The endothelium was removed from the rings by gently sliding a rolled-up piece of filter paper into the vessel lumen. The rings were then mounted in a water-jacketed tissue bath, maintained at 37° C., between moveable and fixed ends of a stainless steel wire with the moveable end attached to an FT03 Grass transducer coupled to a Model 7D Grass Polygraph for recording isometric force responses. The bath was filled with 20 ml of oxygenated (95% oxygen/5% carbon dioxide) Krebs solution of the following composition (mM); 130 NaCl, 15 NaHCO3, […], 1.2 NaH2PO4, 1.2 MgSO4, 2.5 CaCl2, and 11.4 glucose. The preparations were equilibrated for one hour before approximately one gram of passive tension was placed on the rings. Angiotensin II concentration-response curves were then recorded (3×10^−10 to 1×10^−5 M). Each concentration of AII was allowed to elicit its maximal contraction, and then AII was washed out repeatedly for 30 minutes before rechallenging with a higher concentration of AII. Aorta rings were exposed to the test antagonist at 10^−5 M for 5 minutes before challenging with AII. Adjacent segments of the same aorta ring were used for all concentration-response curves in the presence of absence of the test antagonist. The effectiveness of the test compound was expressed in terms of pA2 values and were calculated according to H. O. Schild [Br. J. Pharmacol. Chemother., 2, 189-206 (1947)]. The pA2 value is the concentration of the antagonist which increases the EC50 value for AII by a factor of two. Each test antagonist was evaluated in aorta rings from two rabbits.

Compound	Assay B pA2 column, result given as symbol
CCCCc1nc(CCCN)n(Cc2ccc(-c3ccccc3-c3nnn[nH]3)cc2)n1 [Compound 71]	* (Antagonist Activity not observed up to 10 μM of test compound.)

Same assay, conditions: two determinations separated by /

Compound	Assay B pA2
CCCc1nc(CCC)n(Cc2ccc(-c3ccccc3-c3nnn[nH]3)cc2)n1 [Compound 12]	8.59
CCCCCc1nc(CCCCC)n(Cc2ccc(-c3ccccc3-c3nnn[nH]3)cc2)n1 [Compound 13]	8.85
CCCCc1nc(CCC)nn1Cc1ccc(-c2ccccc2-c2nnn[nH]2)cc1 [Compound 14]	8.71
CCCCc1nc(CCC)n(Cc2ccc(-c3ccccc3-c3nnn[nH]3)cc2)n1 [Compound 15]	8.30
CCCCc1nc(CCC(C)C)n(Cc2ccc(-c3ccccc3-c3nnn[nH]3)cc2)n1 [Compound 16]	9.24
CCCCc1nc(CCC(C)C)nn1Cc1ccc(-c2ccccc2-c2nnn[nH]2)cc1 [Compound 17]	8.40
CCCCc1ncnn1Cc1ccc(-c2ccccc2C(=O)O)cc1 [Compound 18]	6.09
CCCCc1ncn(Cc2ccc(-c3ccccc3C(=O)O)cc2)n1 [Compound 19]	5.35
CCCCc1nc(-c2ccccc2)n(Cc2ccc(-c3ccccc3-c3nnn[nH]3)cc2)n1 [Compound 22]	6.46
CCCCc1nc(C(OC)OC)nn1Cc1ccc(-c2ccccc2-c2nnn[nH]2)cc1 [Compound 24]	7.73
CCCCc1nc(CCc2ccccc2)n(Cc2ccc(-c3ccccc3-c3nnn[nH]3)cc2)n1 [Compound 25]	6.73
CCCCc1nc(CCc2ccccc2)nn1Cc1ccc(-c2ccccc2-c2nnn[nH]2)cc1 [Compound 26]	9.66
CCCCc1nc(C(=O)CCC)nn1Cc1ccc(-c2ccccc2-c2nnn[nH]2)cc1 [Compound 30]	7.88
CCCCc1nc(CNC(=O)OC(C)(C)C)nn1Cc1ccc(-c2ccccc2-c2nnn[nH]2)cc1 [Compound 35]	7.47
CCCCc1nc(CN)n(Cc2ccc(-c3ccccc3-c3nnn[nH]3)cc2)n1 [Compound 36]	5.68
CCCCc1nc(CC(OCC)OCC)n(Cc2ccc(-c3ccccc3-c3nnn[nH]3)cc2)n1 [Compound 37]	6.85
CCCCc1nc(CC)nn1Cc1ccc(-c2ccccc2-c2nnn[nH]2)cc1 [Compound 39]	7.84
CCCCc1nc(CNC(=O)CCC(NC(C)=O)C(=O)OC(C)(C)C)nn1Cc1ccc(-c2ccccc2-c2nnn[nH]2)cc1 (centres unmarked) [Compound 41]	5.96
CCCCc1nc(CCC2CCCCC2)n(Cc2ccc(-c3ccccc3-c3nnn[nH]3)cc2)n1 [Compound 42]	6.26
CCCCc1nc(CCCO)nn1Cc1ccc(-c2ccccc2-c2nnn[nH]2)cc1 [Compound 45]	8.24
CCCCc1nc(CCCO)n(Cc2ccc(-c3ccccc3-c3nnn[nH]3)cc2)n1 [Compound 46]	6.64

Compound	Assay B pA2
CCCCc1nc(C(F)F)nn1Cc1ccc(-c2ccccc2-c2nnn[nH]2)cc1 [Compound 47]	7.58
CCCCc1nc(C(=O)Cc2ccccc2)nn1Cc1ccc(-c2ccccc2-c2nnn[nH]2)cc1 [Compound 50]	7.89
CCCCc1nc(C(F)(F)Cc2ccccc2)nn1Cc1ccc(-c2ccccc2-c2nnn[nH]2)cc1 [Compound 51]	8.51
CCCCc1nc(C(=O)O)nn1Cc1ccc(-c2ccccc2-c2nnn[nH]2)cc1 [Compound 52]	8.12
CCCCc1ncnn1Cc1ccc(-c2ccccc2-c2nnn[nH]2)cc1 [Compound 53]	7.83
CCCCc1nc(CCCC2CCCCC2)nn1Cc1ccc(-c2ccccc2-c2nnn[nH]2)cc1 [Compound 58]	6.57
CCCCc1nc(CC23CC4CC(CC(C4)C2)C3)nn1Cc1ccc(-c2ccccc2-c2nnn[nH]2)cc1 [Compound 62]	8.61
CCCCc1nc(CCC(=O)O)nn1Cc1ccc(-c2ccccc2-c2nnn[nH]2)cc1 [Compound 63]	7.67
CCCCc1nc(CCC(=O)O)n(Cc2ccc(-c3ccccc3-c3nnn[nH]3)cc2)n1 [Compound 64]	6.77
CCCCc1nc(C2CCCCC2)n(Cc2ccc(-c3ccccc3-c3nnn[nH]3)cc2)n1 [Compound 65]	7.75
CCCCc1nc(CCCNC(=O)OC(C)(C)C)n(Cc2ccc(-c3ccccc3-c3nnn[nH]3)cc2)n1 [Compound 67]	5.78
CCCCc1nc(CCCN)nn1Cc1ccc(-c2ccccc2-c2nnn[nH]2)cc1 [Compound 72]	6.10
CCCCc1nc(CC2CCCCC2)n(Cc2ccc(-c3ccccc3-c3nnn[nH]3)cc2)n1 [Compound 73]	7.46
CCCCc1nc(CC2CCCCC2)nn1Cc1ccc(-c2ccccc2-c2nnn[nH]2)cc1 [Compound 74]	8.39
CCCCc1nc(CC)n(Cc2ccc(-c3ccccc3C(=O)O)cc2)n1 [Compound 76]	5.78
CCCCc1nc2c(OC(=O)C(C)C)nnc(O)c2n1Cc1ccc(-c2ccccc2-c2nnn[nH]2)cc1 [Compound 119]	9.00
CCCCc1nc2c(OC(=O)C3CCCCC3)nnc(O)c2n1Cc1ccc(-c2ccccc2-c2nnn[nH]2)cc1 [Compound 120]	8.77
CCCCc1nc2c(OC(=O)Cc3ccccc3)nnc(O)c2n1Cc1ccc(-c2ccccc2-c2nnn[nH]2)cc1 [Compound 124]	9.12
CCCCc1nc(Cc2ccc(-c3ccccc3C(=O)O)cc2)n(CCCC)n1 [Compound 126]	7.05
CCCCc1nc(Cc2ccc(-c3ccccc3-c3nnn[nH]3)cc2)n(CCCC)n1 [Compound 128]	8.40
CCCCn1nc(C(F)(F)CCC)nc1Cc1ccc(-c2ccccc2-c2nnn[nH]2)cc1 [Compound 130]	7.94

Compound	Assay B pA2
CCCCc1nc(Cc2ccc(-c3ccccc3-c3nnn[nH]3)nc2)n(CCCC)n1 [Compound 150]	7.80
CCCCn1nc(CCc2ccccc2)nc1Cc1ccc(-c2ccccc2-c2nnn[nH]2)nc1 [Compound 151]	7.97
CCCCn1nc(CCC)nc1Cc1ccc(-c2ccccc2-c2nnn[nH]2)nc1 [Compound 152]	7.23
CCCCn1nc(/C=C/c2cccs2)nc1Cc1ccc(-c2ccccc2-c2nnn[nH]2)nc1 [Compound 154]	8.38
CCCCn1nc(-c2ccccc2Cl)nc1Cc1ccc(-c2ccccc2-c2nnn[nH]2)nc1 [Compound 158]	8.14
CCCCn1nc(C(=O)CCC)nc1Cc1ccc(-c2ccccc2-c2nnn[nH]2)nc1 [Compound 160]	7.71
CCCn1nc(C(C)(F)F)nc1Cc1ccc(-c2ccccc2-c2nnn[nH]2)nc1 [Compound 165]	7.18
CCCCn1nc(C(C)(F)F)nc1Cc1ccc(-c2ccccc2-c2nnn[nH]2)nc1 [Compound 166]	7.74
CCCn1nc(C(F)(F)CC)nc1Cc1ccc(-c2ccccc2-c2nnn[nH]2)nc1 [Compound 167]	7.11
CCCCn1nc(C(F)(F)CC)nc1Cc1ccc(-c2ccccc2-c2nnn[nH]2)nc1 [Compound 168]	7.58
CCCn1nc(C(F)(F)CCC)nc1Cc1ccc(-c2ccccc2-c2nnn[nH]2)nc1 [Compound 169]	7.58
CCCCn1nc(C(=O)NC)nc1Cc1ccc(-c2ccccc2-c2nnn[nH]2)nc1 [Compound 172]	7.04
CCCn1nc(C(OC)OC)nc1Cc1ccc(-c2ccccc2-c2nnn[nH]2)nc1 [Compound 174]	7.02
CCCCn1nc(C(OCC)OCC)nc1Cc1ccc(-c2ccccc2-c2nnn[nH]2)nc1 [Compound 176]	7.55
CCCCn1nc(C(OC(C)C)OC(C)C)nc1Cc1ccc(-c2ccccc2-c2nnn[nH]2)nc1 [Compound 178]	7.47
CCCCc1nc(CCCC)n(Cc2ccc(-c3ccccc3-c3nnn[nH]3)cn2)n1 [Compound 239]	8.01
CCCc1nc(CCC)n(Cc2ccc(-c3ccccc3-c3nnn[nH]3)nc2)n1 [Compound 246]	7.59
CCCCc1nc(C(F)(F)CCC)nn1Cc1ccc(-c2ccccc2-c2nnn[nH]2)nc1 [Compound 247]	8.41
CCCCc1nc(C(F)(F)CCC)n(Cc2ccc(-c3ccccc3-c3nnn[nH]3)nc2)n1 [Compound 248]	7.50

Source: US6984633B2, “Method to treat cardiofibrosis with a combination therapy of an angiotensin II antagonist and epoxymexrenone” (G.D Searle & Co., priority 1995, dated 2006)
